# Laboratory results reported in patent US20090012061A1, “A Method of Treating Cancer” (priority 2004, published 2009).
# Where “and” joins values, the source holds several entries; their conditions need not be identical. Equal values may be shown once. Read-outs that look alike come from different tables or passages of the source.
# Key:
# [1] = target: T1, human KSP motor domain (KSP(367H)) (Homo sapiens, UniProt P52732); test: Kinesin ATPase in vitro assay (KSP ATPase, quinaldine red/ammonium molybdate phosphate detection); assay type: biochemical
# T1 construct: were used to amplify the motor domain and the neck linker region; made in house; host or cells: E. coli BL21 (DE3), pRSETa
# T1 sequence (P52732 18-359 limits assumed): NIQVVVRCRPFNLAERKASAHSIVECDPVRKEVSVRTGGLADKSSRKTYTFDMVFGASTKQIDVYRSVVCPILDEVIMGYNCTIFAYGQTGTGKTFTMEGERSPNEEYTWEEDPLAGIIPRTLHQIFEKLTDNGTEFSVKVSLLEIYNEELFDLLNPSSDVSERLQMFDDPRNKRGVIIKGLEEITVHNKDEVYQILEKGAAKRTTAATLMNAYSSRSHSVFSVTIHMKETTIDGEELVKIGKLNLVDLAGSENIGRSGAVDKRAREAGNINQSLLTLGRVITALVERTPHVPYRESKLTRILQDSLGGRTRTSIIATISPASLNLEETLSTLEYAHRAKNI
# Text: Plasmids for the expression of the human KSP motor domain construct were cloned by PCR using a pBluescript full length human KSP construct (Blangy et al., Cell, vol. 83, pp 1159-1169, 1995) as a template. The N-terminal primer 5′-[…] (SEQ.ID.NO.: 1) and the C-terminal primer 5′-[…] […] (SEQ.ID.NO.: 2) were used to amplify the motor domain and the neck linker region. The PCR products were digested with AseI and XhoI, ligated into the NdeI/XhoI digestion product of pRSETa (Invitrogen) and transformed into E. coli BL21 (DE3).
# Cells were grown at 37° C. to an OD600 of 0.5. After cooling the culture to room temperature expression of KSP was induced with 100 μM IPTG and incubation was continued overnight. Cells were pelleted by centrifugation and washed once with ice-cold PBS. Pellets were flash-frozen and stored −80° C.
# Cell pellets were thawed on ice and resuspended in lysis buffer (50 mM K-HEPES, pH 8.0, 250 mM KCl, 0.1% Tween, 10 mM imidazole, 0.5 mM Mg-ATP, 1 mM PMSF, 2 mM benzimidine, 1× complete protease inhibitor cocktail (Roche)). Cell suspensions were incubated with 1 mg/ml lysozyme and 5 mM β-mercaptoethanol on ice for 10 minutes, followed by sonication (3×30 sec). All subsequent procedures were performed at 4° C. Lysates were centrifuged at 40,000×g for 40 minutes. Supernatants were diluted and loaded onto an SP Sepharose column (Phamacia, 5 ml cartridge) in buffer A (50 mM K-HEPES, pH 6.8, 1 mM MgCl2, 1 mM EGTA, 10 μM Mg-ATP, 1 mM DTT) and eluted with a 0 to 750 mM KCl gradient in buffer A. Fractions containing KSP were pooled and incubated with Ni-NTA resin (Qiagen) for one hour. The resin was washed three times with buffer B (Lysis buffer minus PMSF and protease inhibitor cocktail), followed by three 15-minute incubations and washes with buffer B. Finally, the resin was incubated and washed for 15 minutes three times with buffer C (same as buffer B except for pH 6.0) and poured into a column. KSP was eluted with elution buffer (identical to buffer B except for 150 mM KCl and 250 mM imidazole). KSP-containing fractions were pooled, made 10% in sucrose, and stored at −80° C.
# Microtubules are prepared from tubulin isolated from bovine brain. Purified tubulin (>97% MAP-free) at 1 mg/ml is polymerized at 37° C. in the presence of 10 μM paclitaxel, 1 mM DTT, 1 mM GTP in BRB80 buffer (80 mM K-PIPES, 1 mM EGTA, 1 mM MgCl2 at pH 6.8). The resulting microtubules are separated from non-polymerized tubulin by ultracentrifugation and removal of the supernatant. The pellet, containing the microtubules, is gently resuspended in 10 μM paclitaxel, 1 mM DTT, 50 μg/ml ampicillin, and 5 μg/ml chloramphenicol in BRB80.
# (§1) The kinesin motor domain (20 nM) is incubated with microtubules, ATP (1 mM 1:1 MgCl2: Na-ATP), and compound at 23° C. in buffer containing 80 mM K-HEPES (pH 7.0), 1 mM EGTA, 1 mM DTT, 1 mM MgCl2, and 50 mM KCl. The reaction is terminated by a 2-10 fold dilution with a final buffer composition of 80 mM HEPES and 50 mM EDTA (or, alternately, with a 1:1 addition of reaction volume to stop buffer(1.8M KCl and 50 mM EDTA)). Free phosphate from the ATP hydrolysis reaction is measured via a quinaldine red/ammonium molybdate assay by adding a 1.5 times volume of quench C (e.g., to a mixture of […] reaction volume+40 μl stop buffer is then added 120 μl quench C). Quench A contains 0.1 mg/ml quinaldine red and 0.14% polyvinyl alcohol; quench B contains 12.3 mM ammonium molybdate tetrahydrate in 1.15 M sulfuric acid. Quench C is a 2:1 ratio of quench A:quench B The reaction is incubated for 5-10 minutes at 23° C., and the absorbance of the phospho-molybdate complex is measured at 540 nm.
# In order to identify compounds useful in the methods of the instant invention, the assay described above was then performed in the presence (0.5 μM) and absence of microtubules. Compounds that are commercially available are noted by the source and catalog number.
# [2] = target: T1, human KSP motor domain (KSP(367H)); test: Substrate competitive profile by Michaelis-Menton analysis with the KSP ATPase assay; assay type: biochemical; conditions: for Competitive with ATP?: ATP varied between 4 μM and 500 μM, in the presence of 2 μM of microtubules; for Competitive with MT?: microtubules varied between 0.01 μM and 5 μM, in the presence of 1 mM of ATP
# Description: as §1
# The in vitro substrate competitive profiles of the compounds described in Table 1 below were determined using a Michaelis-Menton analysis with the assay described above, but varying assay concentrations of one of the substrates (ATP or microtubule) in the presence of excess of the second substrate. Thus, the concentration of ATP was varied between 4 μM and 500 μM, in the presence of 2 μM of microtubules. And the concentration of microtubules was varied between 0.01 μM and 5 μM, in the presence of 1 mM of ATP.
# [3] = Table 1, kinesin motor domain 20 nM, with microtubules, 1 mM ATP, 23° C., read-out: KSP ATPase IC50
# [4] = Table 2, microtubules absent (basal), [MT] = 0 uM, standard KSP(ADP), read-out: KSP ATPase IC50 (nM) [MT] = 0 uM
# [5] = Table 2, microtubules present, [MT] = 0.5 uM, standard KSP(ADP), read-out: KSP ATPase IC50 (nM) [MT] = 0.5 uM
SMILES,"IC50 [1, 3]","IC50 [1, 4]","IC50 [1, 5]",Competitive with ATP? [2],Competitive with MT? [2],"IC50 ([1]; KSP ATPase IC50 (nM) [MT] = 0 uM, Table 2, microtubules absent (basal), [MT] = 0 uM, standard KSP(ADP))","IC50 ([1]; KSP ATPase IC50 (nM) [MT] = 0.5 uM, Table 2, microtubules present, [MT] = 0.5 uM, standard KSP(ADP))","IC50 ([1]; KSP ATPase IC50 (nM), Table 1, kinesin motor domain 20 nM, with microtubules, 1 mM ATP, 23° C.)"
Cc1cc2ncn(CC(O)COc3ccc(I)cc3)c2cc1C (centres unmarked) [Compound 10],4750 nM,> 50000 nM,5040 nM,no,no,–,–,–
CCN1C(=O)C(O)(c2ccccc2)c2cc(Br)ccc21 (centres unmarked) [Compound 14],–,–,–,no,no,> 50000 nM,8920 nM and 4600 nM,3920 nM
CCCc1cc(N)c2cc(NC(=O)c3ccc(Oc4ccc(Cl)cc4)cc3)ccc2n1 [Compound 4],3230 nM,> 50000 nM,2550 nM and 3430 nM,no,no,–,–,–
C=CCNC(=O)c1cc(-c2ccc(Cl)cc2)n(-c2cc(Cl)ccc2Cl)n1 [Compound 8],5040 nM,> 50000 nM,3100 nM and 5540 nM,no,no,–,–,–
CCOC(=O)CSc1nc(C23CC4CC(CC(C4)C2)C3)ccc1C#N [Compound 12],556 nM,> 50000 nM,1150 nM,no,–,–,–,–
Cc1nn(C(=S)NCc2ccccc2)c2c1[C@H]1[C@@H](C2)C1(C)C [Compound 11],1230 nM,> 50000 nM,1820 nM and 1360 nM,no,no,–,–,–
CC(C)(C)c1ccc2[nH]c3c(c2c1)CCCC3=O [Compound 1],597 nM,> 50000 nM,619 nM and 685 nM,no,no,–,–,–

# More lines, main results first:
"IC50 [1, 3]","IC50 [1, 4]","IC50 [1, 5]",Competitive with ATP? [2],Competitive with MT? [2],SMILES,"IC50 ([1]; KSP ATPase IC50 (nM) [MT] = 0 uM, Table 2, microtubules absent (basal), [MT] = 0 uM, standard KSP(ADP))","IC50 ([1]; KSP ATPase IC50 (nM) [MT] = 0.5 uM, Table 2, microtubules present, [MT] = 0.5 uM, standard KSP(ADP))","IC50 ([1]; KSP ATPase IC50 (nM), Table 1, kinesin motor domain 20 nM, with microtubules, 1 mM ATP, 23° C.)"
3850 nM,> 50000 nM,3690 nM and 6290 nM,no,no,Cc1ccc(NC(=O)C(c2ccccc2)c2ccccc2)cc1[N+](=O)[O-] [Compound 7],–,–,–
7020 nM and 6750 nM,> 50000 nM,8880 nM,no,no,CSc1ccc(C(=O)N2CCCN(CC(=O)Nc3ccc(F)cc3)CC2)s1 [Compound 15],–,–,–
692 nM,> 50000 nM,647 nM,no,no,O=C(Nc1ccc(Br)c(Cl)c1)C(c1ccccc1)c1ccccc1 [Compound 9],–,–,–
2360 nM,> 50000 nM,4050 nM and 2940 nM,no,no,"O=C(NC(C(=O)c1ccccc1)c1ccccc1)OCc1ccccc1 (centres unmarked) [Compound 3, N-(2-Oxo-1,2-diphenyl-ethyl)-carbamic acid benzyl ester]",–,–,–
1090 nM,> 50000 nM,1400 nM and 2150 nM,no,no,O=C(Nc1nc2ccccc2s1)C(c1ccccc1)c1ccccc1 [Compound 2],–,–,–
1900 nM,> 50000 nM,2780 nM,no,no,"CC(C)(C)c1cccc(NC(=O)Nc2ccc3ccc(O)cc3c2)c1 [Compound 6, N-(3-tert-butylphenyl)-N-(7-hydroxy-2-naphthyl)urea]",–,–,–
864 nM,> 50000 nM,2530 nM and 4520 nM,no,no,O=C(c1cc([N+](=O)[O-])ccc1Cl)N1c2ccccc2Sc2ccccc21 [Compound 13],–,–,–
5870 nM,> 50000 nM,7740 nM,no,no,Oc1cccc(CC2(Cc3cccc(O)c3)Cc3ccccc3C2)c1 [Compound 5],–,–,–
